Reference: PubChem BioAssay (NCI)
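Step 1: Grow cells in 96-well plates. Step 2: Expose to compound for 48 hours at 5 concentrations. Step 3: Interpolate endpoints linearly; if unreached, use highest concentration. Here, GI50 denotes the concentration required for 50% inhibition of growth. TGI denotes the concentration required for complete inhibition of growth.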

Experiments:
Experiment in all cases: NCI anticancer screen, dose series, 48 h
EKVX NSCLC = system: EKVX NSCLC
MCF7 breast = system: MCF7 breast
SF-539 CNS = system: SF-539 CNS
SNB-75 CNS = system: SNB-75 CNS
MDA-MB-435 = system: MDA-MB-435
A498 renal = system: A498 renal
M14 melanoma = system: M14 melanoma
HCC-2998 colon = system: HCC-2998 colon
RXF 393 renal = system: RXF 393 renal
MALME-3M melanoma = system: MALME-3M melanoma
HS 578T breast = system: HS 578T breast
HCT-116 colon = system: HCT-116 colon
ACHN renal = system: ACHN renal
MDA-MB-231 breast = system: MDA-MB-231 breast
OVCAR-8 ovarian = system: OVCAR-8 ovarian
HOP-62 NSCLC = system: HOP-62 NSCLC
A549 NSCLC = system: A549 NSCLC
T-47D breast = system: T-47D breast
U251 CNS = system: U251 CNS
HCT-15 colon = system: HCT-15 colon
NCI-H522 lung = system: NCI-H522 lung
RPMI-8226 leukemia = system: RPMI-8226 leukemia
NCI/ADR-RES ovarian = system: NCI/ADR-RES ovarian
SR leukemia = system: SR leukemia
K-562 leukemia = system: K-562 leukemia
DU-145 prostate = system: DU-145 prostate
SK-MEL-5 melanoma = system: SK-MEL-5 melanoma
UACC-257 melanoma = system: UACC-257 melanoma
UACC-62 melanoma = system: UACC-62 melanoma
BT-549 breast = system: BT-549 breast
HOP-92 NSCLC = system: HOP-92 NSCLC
SK-OV-3 ovarian = system: SK-OV-3 ovarian
SNB-19 CNS = system: SNB-19 CNS
HT29 colon = system: HT29 colon
LOX IMVI melanoma = system: LOX IMVI melanoma
CAKI-1 renal = system: CAKI-1 renal
SK-MEL-2 melanoma = system: SK-MEL-2 melanoma
IGROV1 ovarian = system: IGROV1 ovarian
SW-620 colon = system: SW-620 colon
SK-MEL-28 melanoma = system: SK-MEL-28 melanoma
NCI-H460 lung = system: NCI-H460 lung
HL-60(TB) leukemia = system: HL-60(TB) leukemia
NCI-H23 lung = system: NCI-H23 lung
COLO 205 colon = system: COLO 205 colon
SF-268 CNS = system: SF-268 CNS
SN12C renal = system: SN12C renal
OVCAR-4 ovarian = system: OVCAR-4 ovarian
UO-31 renal = system: UO-31 renal
786-0 renal = system: 786-0 renal
CCRF-CEM leukemia = system: CCRF-CEM leukemia
TK-10 renal = system: TK-10 renal
OVCAR-3 ovarian = system: OVCAR-3 ovarian
MOLT-4 leukemia = system: MOLT-4 leukemia
NCI-H226 lung = system: NCI-H226 lung
KM12 colon = system: KM12 colon
PC-3 prostate = system: PC-3 prostate
OVCAR-5 ovarian = system: OVCAR-5 ovarian
SF-295 CNS = system: SF-295 CNS

For `O=C(CCCCCCNC(=O)c1cnc(N(c2ccccc2)c2ccccc2)nc1)NO`, the GI50 (EKVX NSCLC) was 4.95 µM, the TGI (EKVX NSCLC) was > 100 µM and the GI50 (MCF7 breast) was 2.99 µM. The TGI (MCF7 breast) was > 67.1 µM, the GI50 (SF-539 CNS) was 2.92 µM and the TGI (SF-539 CNS) was 52.3 µM. The GI50 (SNB-75 CNS) was 1.5 µM, the TGI (SNB-75 CNS) was > 51.9 µM and the GI50 (MDA-MB-435) was 2.04 µM. The TGI (MDA-MB-435) was > 36.8 µM, the GI50 (A498 renal) was 2.5 µM and the TGI (A498 renal) was 14.8 µM. For the same compound, the GI50 (M14 melanoma) was 3.57 µM, the TGI (M14 melanoma) was > 100 µM and the GI50 (HCC-2998 colon) was 3.38 µM. It also gave a TGI (HCC-2998 colon) of 12.5 µM, a GI50 (RXF 393 renal) of 0.796 µM and a TGI (RXF 393 renal) of 3.85 µM. It also gave a GI50 (MALME-3M melanoma) of 0.73 µM, a TGI (MALME-3M melanoma) of 5.03 µM and a GI50 (HS 578T breast) of 2.54 µM. The TGI (HS 578T breast) was > 100 µM, the GI50 (HCT-116 colon) was 2.07 µM and the TGI (HCT-116 colon) was > 33.9 µM. It also gave a GI50 (ACHN renal) of 3.99 µM, a TGI (ACHN renal) of 23.2 µM and a GI50 (MDA-MB-231 breast) of 2.99 µM. The TGI (MDA-MB-231 breast) was 14.7 µM, the GI50 (OVCAR-8 ovarian) was 2.25 µM and the TGI (OVCAR-8 ovarian) was > 100 µM. For the same compound, the GI50 (HOP-62 NSCLC) was 3.46 µM, the TGI (HOP-62 NSCLC) was 28.1 µM and the GI50 (A549 NSCLC) was 6.12 µM. The TGI (A549 NSCLC) was > 92.7 µM, the GI50 (T-47D breast) was 0.907 µM and the TGI (T-47D breast) was 5.83 µM. For the same compound, the GI50 (U251 CNS) was 3 µM, the TGI (U251 CNS) was 15.6 µM and the GI50 (HCT-15 colon) was 18.4 µM. The TGI (HCT-15 colon) was > 100 µM, the GI50 (NCI-H522 lung) was 0.786 µM and the TGI (NCI-H522 lung) was 5.66 µM. The GI50 (RPMI-8226 leukemia) was 1.29 µM, the TGI (RPMI-8226 leukemia) was > 100 µM and the GI50 (NCI/ADR-RES ovarian) was 14.4 µM. The TGI (NCI/ADR-RES ovarian) was > 96.8 µM, the GI50 (SR leukemia) was 1.22 µM and the TGI (SR leukemia) was > 100 µM. The GI50 (K-562 leukemia) was 2.47 µM, the TGI (K-562 leukemia) was > 100 µM and the GI50 (DU-145 prostate) was 3.82 µM. The TGI (DU-145 prostate) was > 100 µM, the GI50 (SK-MEL-5 melanoma) was 1.82 µM and the TGI (SK-MEL-5 melanoma) was 5.48 µM. It also gave a GI50 (UACC-257 melanoma) of 2.23 µM, a TGI (UACC-257 melanoma) of 30.5 µM and a GI50 (UACC-62 melanoma) of 1.21 µM. For the same compound, the TGI (UACC-62 melanoma) was 4.42 µM, the GI50 (BT-549 breast) was 12.5 µM and the TGI (BT-549 breast) was > 84.3 µM. The GI50 (HOP-92 NSCLC) was 2.13 µM, the TGI (HOP-92 NSCLC) was 15.7 µM and the GI50 (SK-OV-3 ovarian) was 3.25 µM. It also gave a TGI (SK-OV-3 ovarian) of 23.8 µM, a GI50 (SNB-19 CNS) of 3.67 µM and a TGI (SNB-19 CNS) of 31.3 µM. For the same compound, the GI50 (HT29 colon) was 2.29 µM, the TGI (HT29 colon) was > 35.4 µM and the GI50 (LOX IMVI melanoma) was 2.15 µM. For the same compound, the TGI (LOX IMVI melanoma) was 11.4 µM, the GI50 (CAKI-1 renal) was 6.38 µM and the TGI (CAKI-1 renal) was 43.3 µM. For the same compound, the GI50 (SK-MEL-2 melanoma) was 1.9 µM, the TGI (SK-MEL-2 melanoma) was 8.36 µM and the GI50 (IGROV1 ovarian) was 3.2 µM. For the same compound, the TGI (IGROV1 ovarian) was 16.6 µM, the GI50 (SW-620 colon) was 1.94 µM and the TGI (SW-620 colon) was > 29.7 µM. It also gave a GI50 (SK-MEL-28 melanoma) of 3.41 µM, a TGI (SK-MEL-28 melanoma) of 33.3 µM and a GI50 (NCI-H460 lung) of 2.75 µM. The TGI (NCI-H460 lung) was > 100 µM, the GI50 (HL-60(TB) leukemia) was 3.53 µM and the TGI (HL-60(TB) leukemia) was > 62.3 µM. It also gave a GI50 (NCI-H23 lung) of 3.97 µM, a TGI (NCI-H23 lung) of 38.6 µM and a GI50 (COLO 205 colon) of 1.79 µM. The TGI (COLO 205 colon) was 4.1 µM, the GI50 (SF-268 CNS) was 3.77 µM and the TGI (SF-268 CNS) was 33.2 µM. For the same compound, the GI50 (SN12C renal) was 3.85 µM, the TGI (SN12C renal) was 62.4 µM and the GI50 (OVCAR-4 ovarian) was 5.56 µM. The TGI (OVCAR-4 ovarian) was 72.9 µM, the GI50 (UO-31 renal) was 4.63 µM and the TGI (UO-31 renal) was 36.6 µM. The GI50 (786-0 renal) was 6.18 µM, the TGI (786-0 renal) was > 73.1 µM and the GI50 (CCRF-CEM leukemia) was 1.03 µM. The TGI (CCRF-CEM leukemia) was > 100 µM, the GI50 (TK-10 renal) was 2.07 µM and the TGI (TK-10 renal) was 12.5 µM. For the same compound, the GI50 (OVCAR-3 ovarian) was 2.71 µM, the TGI (OVCAR-3 ovarian) was 15.3 µM and the GI50 (MOLT-4 leukemia) was 2.13 µM. The TGI (MOLT-4 leukemia) was > 100 µM, the GI50 (NCI-H226 lung) was 16.6 µM and the TGI (NCI-H226 lung) was > 91.4 µM. It also gave a GI50 (KM12 colon) of 3.26 µM, a TGI (KM12 colon) of 21.7 µM and a GI50 (PC-3 prostate) of 4.87 µM. The TGI (PC-3 prostate) was > 100 µM, the GI50 (OVCAR-5 ovarian) was 3.14 µM and the TGI (OVCAR-5 ovarian) was 26.1 µM. For the same compound, the GI50 (SF-295 CNS) was 2.95 µM and the TGI (SF-295 CNS) was 10.8 µM.
